Tests used:
Assay in all cases: relative viability (nuclei count vs DMSO), 5 days (fraction); higher = more cells survive
Ruboxistaurin + AZD7762 = compound: CN(C)C[C@@H]1CCn2cc(c3ccccc32)C2=C(C(=O)NC2=O)c2cn(c3ccccc23)CCO1 [Ruboxistaurin] + NC(=O)Nc1cc(-c2cccc(F)c2)sc1C(=O)N[C@H]1CCCNC1 [AZD7762] (partner 0.2 µM)
How it was run: (§1)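 Relative viability is defined as nuclei in treated wells over nuclei in vehicle wells. Duplicate plates were run and medians reported. Lung cancer cell lines in 1536-well plates were dosed by pin tool one day after seeding, with one drug or with a fixed anchor-drug dose plus five library-drug doses (not always all listed) in √10 steps, and nuclei were counted after 5 days.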

[1] = compound: CN(C)C[C@@H]1CCn2cc(c3ccccc32)C2=C(C(=O)NC2=O)c2cn(c3ccccc23)CCO1 [Ruboxistaurin] + N=C(N)NC(=N)NCCc1ccccc1 [Phenformin] (partner 250 µM)
How it was run: as §1

[2] = compound: CN(C)C[C@@H]1CCn2cc(c3ccccc32)C2=C(C(=O)NC2=O)c2cn(c3ccccc23)CCO1 [Ruboxistaurin] + Cc1nc(NC(=O)N2CCC[C@H]2C(N)=O)sc1-c1ccnc(C(C)(C)C(F)(F)F)c1 [Alpelisib] (partner 2 µM)
How it was run: as §1

[3] = compound: CN(C)C[C@@H]1CCn2cc(c3ccccc32)C2=C(C(=O)NC2=O)c2cn(c3ccccc23)CCO1 [Ruboxistaurin] + Cc1nc(Nc2ncc(C(=O)Nc3c(C)cccc3Cl)s2)cc(N2CCN(CCO)CC2)n1 [Dasatinib] (partner 0.075 µM)
How it was run: as §1

[4] = compound: CN(C)C[C@@H]1CCn2cc(c3ccccc32)C2=C(C(=O)NC2=O)c2cn(c3ccccc23)CCO1 [Ruboxistaurin] + CS(=O)(=O)CCNCc1ccc(-c2ccc3ncnc(Nc4ccc(OCc5cccc(F)c5)c(Cl)c4)c3c2)o1 [Lapatinib] (partner 2 µM)
How it was run: as §1

Row | Cell Line | relative viability (Ruboxistaurin + AZD7762; first compound 0.08 µM) | relative viability (Ruboxistaurin + AZD7762; first compound 0.8 µM) | relative viability (Ruboxistaurin + AZD7762; first compound 2.53 µM) | relative viability (Ruboxistaurin + AZD7762; first compound 8 µM) | relative viability ([1]; first compound 0.08 µM) | relative viability ([1]; first compound 0.8 µM) | relative viability ([1]; first compound 2.53 µM) | relative viability ([1]; first compound 8 µM) | relative viability ([2]; first compound 0.08 µM) | relative viability ([2]; first compound 0.8 µM) | relative viability ([2]; first compound 2.53 µM) | relative viability ([2]; first compound 8 µM) | relative viability ([3]; first compound 0.08 µM) | relative viability ([3]; first compound 0.8 µM) | relative viability ([3]; first compound 2.53 µM) | relative viability ([3]; first compound 8 µM) | relative viability ([4]; first compound 0.08 µM) | relative viability ([4]; first compound 0.8 µM) | relative viability ([4]; first compound 2.53 µM) | relative viability ([4]; first compound 8 µM)
1 | NCI-H3122 | 0.98 | 0.909 | 1.05 | 1.1 | 0.409 | 0.372 | 0.413 | 0.379 | 0.837 | 0.562 | 0.737 | 0.587 | 0.953 | 0.922 | 0.753 | 0.96 | 1.02 | 1.02 | 1 | 1.08
2 | PC-3 [JPC-3] | 0.869 | 0.754 | 0.906 | 0.675 | 0.471 | 0.47 | 0.492 | 0.517 | 1.02 | 0.956 | 1.01 | 0.976 | 1 | 0.97 | 0.967 | 0.944 | 0.428 | 0.417 | 0.44 | 0.391
3 | PC-14 | 0.391 | 0.33 | 0.346 | 0.439 | 0.675 | 0.568 | 0.536 | 0.556 | 1.03 | 0.887 | 0.881 | 1 | 0.269 | 0.221 | 0.281 | 0.0895 | 0.353 | 0.311 | 0.302 | 0.294
4 | RERF-LC-KJ | 1.05 | 1.04 | 0.982 | 1.19 | 0.458 | 0.426 | 0.443 | 0.406 | 0.854 | 0.798 | 0.761 | 0.744 | 0.847 | 0.608 | 0.833 | 0.652 | 0.905 | 0.837 | 0.781 | 0.77

— the supplement of paper PMC10307832
